Measured values as given in PubChem BioAssay (NCI).
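Test compounds were applied to cells in 96-well plates for 48 hours at 5 doses. GI50 is the concentration that inhibits growth by half. TGI marks complete inhibition of growth.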

Tests used:
Assay in all cases: NCI-60 cell line screen, 48 h
[1] = system: CCRF-CEM leukemia
[2] = system: NCI-H226 lung
[3] = system: NCI-H522 lung
[4] = system: SF-268 CNS
[5] = system: KM12 colon
[6] = system: M14 melanoma
[7] = system: 786-0 renal
[8] = system: OVCAR-4 ovarian
[9] = system: PC-3 prostate
[10] = system: UACC-257 melanoma

SMILES | GI50 [1] [µM] | TGI [1] [µM] | GI50 [2] [µM] | TGI [2] [µM] | GI50 [3] [µM] | TGI [3] [µM] | GI50 [4] [µM] | TGI [4] [µM] | GI50 [5] [µM] | TGI [5] [µM] | GI50 [6] [µM] | TGI [6] [µM] | GI50 [7] [µM] | TGI [7] [µM] | GI50 [8] [µM] | TGI [8] [µM] | GI50 [9] [µM] | TGI [9] [µM] | GI50 [10] [µM] | TGI [10] [µM]
Nc1nc2c(c3ncccc13)C(c1ccc(Cl)c(Cl)c1)Cc1ncccc1-2 (centres undefined) | 3.27 | 16.6 | 16.6 | 41.5 | 1.5 | 5.1 | 5.14 | 23.4 | 2.73 | 14.4 | 3.2 | 12.3 | 3.49 | 13.4 | 5.76 | 18.6 | 3.4 | 15.5 | 13.2 | 26.4
Cc1nc2cncc(C#Cc3cncc(C(=O)Nc4ccc(CN5CCN(C)CC5)c(C(F)(F)F)c4)c3)c2nc1C | 1.12 | 12.5 | 0.0572 | 4.19 | 0.466 | 8.21 | 0.552 | 18.8 | 0.005 | 2.98 | 0.144 | 0.624 | 0.925 | 7.4 | 0.162 | 6.74 | 1.51 | 12.2 | 0.549 | 3.56
CC1=C(C(=O)Nc2ccc3[nH]ncc3c2)C(c2ccc(F)cc2)NC(=O)N1 (centres undefined) | > 25 | > 25 | 6.46 | > 25 | > 18.2 | > 25 | 23.4 | > 25 | > 25 | > 25 | > 25 | > 25 | > 25 | > 25 | > 25 | > 25 | > 25 | > 25 | > 25 | > 25
OCc1cccc(-c2ccc3ncc(-c4nc(NC5CC5)ncc4F)n3c2)c1 | 0.249 | 2.69 | 0.301 | 1.47 | 0.316 | 2.34 | 0.275 | 0.801 | 0.222 | 1.21 | 0.328 | 1.15 | 0.347 | 3.03 | 0.342 | 1.77 | 0.314 | 3.23 | 0.372 | 1.79
O=C(Nc1c(Cl)cc([N+](=O)[O-])cc1Cl)C(=O)C1C(=O)NC(=S)NC1=O |  | > 100 |  | > 100 |  | > 100 |  | > 100 |  | > 100 |  | > 100 |  | > 100 |  | > 100 |  | > 100 |  | > 100
C=C(C)C(=O)OC1CC2(C)OC2CC(OC(C)=O)/C(C)=C/C2OC(=O)C(=C)C21 (centres undefined) |  | 0.654 |  | 48 |  | 0.851 |  | 15.3 |  | 33.7 |  | 9.39 |  | 6.37 |  | 23.7 |  | 22.5 |  | 18.5
O=S1(=O)N(Cc2ccccc2)[C@@H](Cc2ccccc2)C2O[C@H]2[C@H](Cc2ccccc2)N1Cc1ccccc1 (some centres undefined) | > 7.5 | > 7.5 | > 7.5 | > 7.5 | 1.83 | > 7.5 | 6.08 | > 7.5 | 7.19 | > 7.5 | > 7.5 | > 7.5 | 5.12 | > 7.5 | > 7.5 | > 7.5 | 3.06 | > 7.5 | 2.89 | > 7.5
CCCCCCCCCCCCCCCC(=O)OCC1OC(n2cnc3c(=S)nc(N)[nH]c32)C(OC(=O)CCCCCCCCCCCCCCC)C1OC(=O)CCCCCCCCCCCCCCC (centres undefined) | 1.85 | > 50 | 8.59 | > 50 | 4.82 | > 47.4 | 7.9 | > 50 | 9.48 | > 50 | 1.5 | > 17.9 | 2.46 | > 50 | > 19.5 | > 50 | 9.96 | > 50 | > 50 | > 50
COC(=O)Nc1nc2ccc(Oc3ccc(NC(=O)Nc4cccc(Br)c4)cc3)cc2[nH]1 | 1.59 | > 25 | 7.59 | > 25 | 0.351 | 2.7 | 3.98 | > 25 | 0.119 | 3.97 | 2.12 | > 17.8 | 3.9 | > 24.1 | 3.39 | 7.42 | 1.85 | > 12.7 | 1.95 | > 16
COc1ccc(Nc2ncccc2/C=C/C(=O)c2cc(OC)c(OC)c(OC)c2)cc1 | 0.5 | > 100 | 1.37 | 2.81 | 0.36 | 1.64 | 1.77 | 4.08 | 1.69 | 3.22 | 1.65 | 3.16 | 1.69 | 3.22 | 1.62 | 3.47 | 2.82 | 8.71 | 1.53 | 2.92
O=C(Cn1c(=O)c(-c2ccccc2)nc2ccccc21)c1cccnc1 | > 100 | > 100 | > 100 | > 100 | > 100 | > 100 | > 100 | > 100 | > 100 | > 100 | > 100 | > 100 | > 100 | > 100 | 46.2 | > 100 | > 100 | > 100 | > 100 | > 100
O=Nc1c(-c2cccc([N+](=O)[O-])c2)nc2cnccn12 |  | 1.72 |  | 50.7 |  | 33.3 |  | 79.4 |  | 95.4 |  | 42 |  | 37.4 |  | 41.4 |  | 62.6 |  | 41
CCON=C1C(C)(C)C(C)(C)C(C)(C)C1(C)C |  | > 100 |  | > 100 |  | > 100 |  | > 100 |  | > 100 |  | > 100 |  | > 100 |  | > 100 |  | > 100 |  | > 100
COc1cc(C(=O)/C=C/c2c(-c3ccc(F)cc3)nc3sc(C)cn23)cc(OC)c1OC | 7.19 | > 100 | 9.58 | > 100 | 2.96 | > 100 | 15.2 | > 100 | 3.63 | > 100 | 5.12 | > 100 | 8.88 | > 100 | 2.28 | > 100 | 2.41 | > 100 | 4.75 | > 100
NS(=O)(=O)c1ccc(C2C3=C(CCCC3=O)OC3=C2C(=O)c2ccccc2C3=O)cc1 (centres undefined) | 0.383 | 2.09 | 1.75 | 3.36 | 0.174 | 0.563 | 0.386 | 1.66 | 1.22 | 3.27 | 0.455 | 1.68 | 1.64 | 3.02 | 0.19 | 0.824 | 0.371 | 1.33 | 0.275 | 0.922
COc1cc([C@@H]2c3cc4c(cc3C(Br)[C@H]3COC(=O)[C@H]23)OCO4)cc(OC)c1OC (some centres undefined) | 0.363 | > 100 | 0.721 | > 100 | 0.072 | 0.389 | 0.399 | > 100 | 0.0909 | 0.438 | 0.22 |  | 0.307 | 33.8 | 0.541 | > 100 | 0.438 | > 100 | 0.214 | > 100
CN(C)c1ccc(C(=O)c2ccc(N(C)C)c(N)c2)cc1N | 1.93 | > 100 | 16.8 | > 82.5 | 0.346 | 4.61 | 10.2 | > 100 | 0.785 | 43.4 | 1.67 | 9.74 | 9.74 | > 91.5 | 6.26 | > 100 | 5.97 | > 100 | > 100 | > 100
CCN(CC)c1ccc(N=C2C=C(C(=O)Nc3ccc(S(C)(=O)=O)cc3)C(=O)c3ccccc32)c(C)c1 | > 100 | > 100 | > 100 | > 100 | 16.7 | > 100 | 2.4 | > 100 | 1.03 | > 100 | 88.5 | > 100 | > 100 | > 100 | 8.91 | > 100 | 1.05 | > 100 | > 100 | > 100
N#Cc1c2ccccc2c2n1-c1ccccc1OC(c1ccccc1)C2=O (centres undefined) | 2.66 | 10.9 | 3.09 | 11.7 | 2.06 | 4.72 | 3.73 | 19.7 | 3.32 | 10.8 | 3.89 | 17.4 | 4.91 | 23 | 2.43 | 8.44 | 2.77 | 13.5 | 3.82 | 17.6
C[C@@H]1COCCN1c1nc(-c2cnc(N)cc2C(F)F)nc(N2[C@H](C)COC[C@@H]2C)n1 | 0.431 | 21.2 | 0.2 | 11.2 | 0.267 | 12.8 | 0.356 | 16.1 | 0.423 | 13.8 | 0.3 | 11.7 | 0.272 | 12.5 | 0.278 | 11.9 | 0.215 | 14.4 | 0.323 | 8.05
N#Cc1cccc(C(=O)c2cnn(-c3ccc(F)cc3)c2N)c1 | > 25 | > 25 | > 25 | > 25 | > 25 | > 25 | > 25 | > 25 | > 25 | > 25 | > 25 | > 25 | > 25 | > 25 | > 25 | > 25 | > 25 | > 25 | > 25 | > 25
